Source: patent publication US20250214924A1, “NOVEL COMPOUNDS AND USES THEREOF” (ACTIVON CO., LTD., priority 2022, published 2025)

Columns and labels:
[1] = test system: HaCaT cells; experiment: antioxidant effect against H2O2 oxidative toxicity (Experimental Example 2); assay type: cell-based, human; conditions: for Number of fluorescent cells (Cell number): untreated 15, H2O2 only 255
[2] = test system: H2O2-induced reactive oxygen species generation; experiment: DCF-DA staining, H2O2-induced reactive oxygen species generation (Experimental Example 3); assay type: cell-based; conditions: for Number of fluorescent cells (Cell number): DCF-DA, untreated 15, H2O2 only 255
Method: To investigate the inhibitory effect of the compound prepared in Embodiment 1 on H2O2-induced reactive oxygen species generation, DCF-DA staining was performed, and the results are shown in Table 3, FIG. 4, and FIG. 5 below. In the experiment, […] were seeded at a density of 2×10^5 cells per dish in a 35 pi dish and incubated for 24 hours. Subsequently, the cells were treated with the compound prepared in Embodiment 1 and further incubated for 24 hours. After 10 minutes of loading with 5 mM DCF-DA, the cells were examined under a fluorescence microscope, and the number of DCF-DA fluorescent cells was counted using Image J.

[3] = test system: human keratinocytes (HaCaT cells); experiment: WST-1 assay, cytotoxicity / skin irritation (Experimental Example 1); assay type: cell-based; conditions: for Cell Viability: 24 hours, HaCaT cells, untreated = 100%
Method: To confirm whether the compound prepared in Embodiment 1 causes toxicity in skin cells and induces skin irritation, a WST-1 assay was conducted, and the results are shown in Table 1 and FIG. 2 below. In the experiment, human keratinocytes (HaCaT cells) were seeded at a density of 1×10^4 cells per well in a 96-well plate with DMEM (Dulbecco's Modified Eagle Medium) containing 10% FBS (Fetal Bovine Serum) and 1% Antibiotic-Antimycotic, and incubated for 24 hours in a constant temperature chamber at 37° C. with 5% CO2. Subsequently, the cells were treated with the compound prepared in Embodiment 1 and incubated for an additional 24 hours.

[4] = various concentrations, compared to positive control group (H2O2 treatment)

Structure (SMILES) | Number of fluorescent cells (Cell number) ([1]; H2O2 1 mM + substance 10 uM) | Number of fluorescent cells (Cell number) ([2]; H2O2 + substance 10 uM) | Cell Viability ([3]; 5 uM) [%] | change in cell viability ([3]; 10 μM treatment) | Cell Viability ([3]; 10 uM) [%] | toxicity to Keratinocyte (HaCaT) cells ([3]; concentrations of 5 and 10 μM) | Number of fluorescent cells (Cell number) ([1]; H2O2 1 mM + substance 5 uM) | increase in reactive oxygen species caused by H2O2 treatment [1, 4] | Number of fluorescent cells (Cell number) ([2]; H2O2 + substance 5 uM) | increase in reactive oxygen species caused by H2O2 treatment [2, 4]
O=C1O[C@H]([C@@H](O)CO)C(O)=C1O [Ascorbic acid, reference compound] | 170 | 170 |  |  |  |  |  |  |  | 
O=C(O)/C=C/c1ccc(O)c(O)c1 [Caffeic acid, reference compound] | 250 | 250 |  |  |  |  |  |  |  | 
O=C(/C=C/c1ccc(O)c(O)c1)OCc1ccc(OC(=O)/C=C/c2ccc(O)c(O)c2)cc1 [Embodiment 1, 4-(((E)-3-(3,4-dihydroxyphenyl)acryloyl)oxy)benzyl (E)-3-(3,4-dihydroxyphenyl)acrylate] | 42 | 42 | 95.9 | cell viability increased | 118.9 | did not show toxicity | 60 | significantly reduced | 60 | significantly reduced
